# Reference: patent publication EP2951180B1, “2,6,7,8 SUBSTITUTED PURINES AS HDM2 INHIBITORS” (Merck Sharp & Dohme Corp., priority 2013, dated 2014)
# Like-named read-outs stand apart in the source and are kept apart here.
# Molecular target: T1, HDM2 (Homo sapiens, UniProt Q00987)
# T1 construct: Thioredoxin (N); made in house; host or cells: E. coli strain BL21(DE3)Rosetta
# Assay: HDM2 FRET assay (inhibition of binding of FITC labeled p53-pocket peptide to HDM2)
# Settings: read-out: FRET IC50
# In short: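 TR-FRET with 0.5 nM His-tagged recombinant HDM2, 3 nM FITC-labelled p53 peptide and 0.25 nM Tb-anti-His antibody in PBS, 0.01% BSA, 0.01% Tween-20, 0.1% DMSO. IC50 from em520/em495 ratio over 10-point dilutions, 4-parameter logistic fit.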
# [1] = 0.5 nM HDM2 (residues 17 to 125), 3nM peptide, two hour incubation at room temperature
# T1 sequence (Q00987 17-125): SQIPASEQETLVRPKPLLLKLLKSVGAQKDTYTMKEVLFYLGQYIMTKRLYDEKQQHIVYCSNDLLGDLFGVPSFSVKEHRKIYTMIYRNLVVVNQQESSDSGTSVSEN
smiles,measurement,setting,value
"CC1CN(c2nc3nc(C(=O)O)nc(N[C@H](C)C4CCC4)c3n2Cc2ccc(C(F)(F)F)cc2)CCO1 (stereo partly drawn) [Example 9.20, 6-{[(1R)-1-cyclobutylethyl]amino}-8-(2-methylmorpholin-4-yl)-7-[4-(trifluoromethyl)benzyl]-7H-purine-2-carboxylic acid]",IC50,Table 9,63.1 nM
"CC(C)c1cc(-c2nc3nc(-c4noc(=O)[nH]4)nc(N[C@H](C)C4CCC4)c3n2C[C@H]2CC[C@H](C)CC2)[nH]c(=O)c1 [Example 15.25, 6-[6-{[(1R)-1-cyclobutylethyl]amino}-7-[(trans-4-methylcyclohexyl)methyl]-2-(5-oxo-2,5-dihydro-1,2,4-oxadiazol-3-yl)-7H-purin-8-yl]-4-(1-methylethyl)pyridin-2(1H)-one]",IC50,[1],6.74 nM
"C=C(c1ccc(F)cc1)c1nc2nc(-c3noc(=O)[nH]3)nc(N[C@H](C)C3CCC3)c2n1C[C@H]1CC[C@H](C)CC1 [Example 21.30, 3-(6-{[(1R)-1-cyclobutylethyl]amino}-8-[1-(4-fluorophenyl)ethenyl]-7-[(trans-4-methylcyclohexyl)methyl]-7H-purin-2-yl)-1,2,4-oxadiazol-5(4H)-one]",IC50,Table 21,1.84 nM
"CNC(=O)c1nc(N[C@H](C)C2CCC2)c2c(n1)nc(-c1cccc(C)c1)n2Cc1ccc(C(F)(F)F)cc1 [Example 12.30, 6-{[(1R)-1-cyclobutylethyl]amino}-N-methyl-8-(3-methylphenyl)-7-[4-(trifluoromethyl)benzyl]-7H-purine-2-carboxamide]",IC50,[1],873 nM
"C[C@@H](Nc1nc(-c2noc(=O)[nH]2)nc2nc(N(C)CCc3ccccc3)n(Cc3ccc(C(F)(F)F)cc3)c12)C1CCC1 [Example 9.94, 3-(6-{[(1R)-1-cyclobutylethyl]amino}-8-[methyl(2-phenylethyl)amino]-7-[4-(trifluoromethyl)benzyl]-7H-purin-2-yl)-1,2,4-oxadiazol-5(4H)-one]",IC50,Table 9,96.7 nM
"CCCCN(CC)c1nc(C(=O)O)nc2nc(-c3cccc(C)c3)n(Cc3ccc(C(F)(F)F)cc3)c12 [Example 6.69, 6-[butyl(ethyl)amino]-8-(3-methylphenyl)-7-[4-(trifluoromethyl)benzyl]-7H-purine-2-carboxylic acid]",IC50,Table 6,621 nM
"CC(C)S(=O)(=O)c1nc(N[C@H](C)C2CCC2)c2c(n1)nc(N1CCOC[C@H]1c1ccccc1)n2C[C@H]1CC[C@H](C)CC1 [Example 14.6, N-[(1R)-1-cyclobutylethyl]-7-[(trans-4-methylcyclohexyl)methyl]-2-[(1-methylethyl)sulfonyl]-8-[(3R)-3-phenylmorpholin-4-yl]-7H-purin-6-amine]",IC50,[1],21.1 nM
"C[C@@H](Nc1nc(-c2noc(=O)[nH]2)nc2nc(C3(c4cccnc4)CC3)n(C[C@H]3CC[C@H](C)CC3)c12)C1CCC1 [Example 22.39, 3-[6-{[(1R)-1-cyclobutylethyl]amino}-7-[(trans-4-methylcyclohexyl)methyl] -8-(1-pyridin-3-ylcyclopropyl)-7H-purin-2-yl]-1,2,4-oxadiazol-5(2H)-one]",IC50,Table 22,13.9 nM
"CC1(C)COCCN1c1nc2nc(-c3noc(=O)[nH]3)nc(-c3cccc(Cl)c3)c2n1C[C@H]1CC[C@H](C)CC1 [Example 16.29, 3-{6-(3-chlorophenyl)-8-(3,3-dimethylmorpholin-4-yl)-7-[(trans-4-methylcyclohexyl)methyl]-7H-purin-2-yl}-1,2,4-oxadiazol-5(4H)-one]",IC50,[1],5.2 nM
"C[C@H](Nc1nc2nc(C(=O)O)nc(N[C@H](C)C3CCC3)c2n1Cc1ccc(C(F)(F)F)cc1)c1ccccc1 [Example 9.16, 6-{[(1R)-1-cyclobutylethyl]amino}-8-{[(1S)-1-phenylethyl]amino}-7-[4-(trifluoromethyl)benzyl]-7H-purine-2-carboxylic acid]",IC50,Table 9,1.91 nM
"Cc1nonc1CNc1nc2nc(-c3noc(=O)[nH]3)nc(N[C@H](C)C3CCC3)c2n1C[C@H]1CC[C@H](C)CC1 [Example 11.111, 3-(6-{[(1R)-1-cyclobutylethyl]amino}-7-[(trans-4-methylcyclohexyl)methyl]-8-{[(4-methyl-1,2,5-oxadiazol-3-yl)methyl]amino}-7H-purin-2-yl)-1,2,4-oxadiazol-5(2H)-one]",IC50,Table 11,6.34 nM
"COC1(c2nc3nc(-c4noc(=O)[nH]4)nc(-c4cncc(Cl)c4)c3n2C[C@H]2CC[C@H](C)CC2)CCCCC1 [Example 23.75, 3-{6-(5-chloropyridin-3-yl)-8-(1-methoxycyclohexyl)-7-[(trans-4-methylcyclohexyl)methyl] -7H-purin-2-yl}-1,2,4-oxadiazol-5(4H)-one]",IC50,Table 23,30.7 nM
"CC(C)CNC(=O)c1nc2nc(C(=O)O)nc(N[C@H](C)C3CCC3)c2n1Cc1ccc(C(F)(F)F)cc1 [Example 10.16, (R)-6-((1-Cyclobutylethyl)amino)-8-(isobutylcarbamoyl)-7-(4-(trifluoromethyl)benzyl)-7H-purine-2-carboxylic acid]",IC50,Table 10,37 nM
"C[C@@H](Nc1nc(-c2noc(=O)[nH]2)nc2nc(N(C)C3CCc4ccccc43)n(Cc3ccc(C(F)(F)F)cc3)c12)C1CCC1 (stereo partly drawn) [Example 9.102, 3-(6-{[(1R)-1-cyclobutylethyl]amino}-8-[2,3-dihydro-1H-inden-1-yl(methyl)amino]-7-[4-(trifluoromethyl)benzyl]-7H-purin-2-yl)-1,2,4-oxadiazol-5(4H)-one]",IC50,Table 9,60.7 nM
"CC(c1nc2nc(-c3noc(=O)[nH]3)nc(-c3cccc(Cl)c3)c2n1C[C@H]1CC[C@H](C)CC1)C1CCOCC1 (relative stereo) [Example 24.3, 3-{6-(3-chlorophenyl)-7-[(trans-4-methylcyclohexyl)methyl]-8-[1-(tetrahydro-2H-pyran-4-yl)ethyl]-7H-purin-2-yl}-1,2,4-oxadiazol-5(4H)-one]",IC50,[1],14.2 nM
"C[C@@H](Nc1nc(C(=O)O)nc2nc(N3CC(C)(C)OC(C)(C)C3)n(Cc3ccc(C(F)(F)F)cc3)c12)C1CCC1 [Example 9.19, 6-{[(1R)-1-cyclobutylethyl]amino}-8-(2,2,6,6-tetramethylmorpholin-4-yl)-7-[4-(trifluoromethyl)benzyl]-7H-purine-2-carboxylic acid]",IC50,Table 9,12.4 nM
"C[C@H]1CC[C@H](Cn2c(C3(c4ccccn4)CC3)nc3nc(-c4nc(=O)o[nH]4)nc(-c4cccc(Cl)c4)c32)CC1 [Example 23.102, 3-[6-(3-chlorophenyl)-7-[(trans-4-methylcyclohexyl)methyl] -8-(1-pyridin-2-ylcyclopropyl)-7H-purin-2-yl]-1,2,4-oxadiazol-5(2H)-one]",IC50,Table 23,17 nM
"C[C@@H](Nc1nc(-c2noc(=O)[nH]2)nc2nc(C3=CCCC3)n(C[C@H]3CC[C@H](C)CC3)c12)C1CCC1 [Example 21.32, 3-(6-{[(1R)-1-cyclobutylethyl]amino}-8-cyclopent-1-en-1-yl-7-[(trans-4-methylcyclohexyl)methyl]-7H-purin-2-yl)-1,2,4-oxadiazol-5(4H)-one]",IC50,Table 21,4.87 nM
"CC(C)S(=O)(=O)N1CCN(c2nc3nc(-c4noc(=O)[nH]4)nc(N[C@H](C)C4CCC4)c3n2C[C@H]2CC[C@H](C)CC2)[C@H](C)C1 [Example 17.17, 3-(6-{[(1R)-1-cyclobutylethyl]amino}-7-[(trans-4-methylcyclohexyl)methyl]-8-{(2R)-2-methyl-4-[(1-methylethyl)sulfonyl]piperazin-1-yl}-7H-purin-2-yl)-1,2,4-oxadiazol-5(4H)-one]",IC50,Table 17.2,10.1 nM
"C[C@@H](Nc1nc(C(=O)O)nc2nc(NC(=O)C3CCCCC3)n(Cc3ccc(C(F)(F)F)cc3)c12)C1CCC1 [Example 9.43, 6-{[(1R)-1-cyclobutylethyl]amino}-8-[(cyclohexylcarbonyl)amino]-7-[4-(trifluoromethyl)benzyl]-7H-purine-2-carboxylic acid]",IC50,Table 9,343 nM
"C[C@H]1CC[C@H](Cn2c(N3CCCC4COCCC43)nc3nc(-c4noc(=O)[nH]4)nc(-c4cccc(Cl)c4)c32)CC1 (single isomer, unassigned) [Example 16.118, 3-{6-(3-chlorophenyl)-8-(hexahydro-2H-pyrano[4,3-b]pyridin-1(5H)-yl)-7-[(trans-4-methylcyclohexyl)methyl]-7H-purin-2-yl}-1,2,4-oxadiazol-5(4H)-one]",IC50,[1],22.2 nM
"C[C@@H](Nc1nc(C(=O)O)nc2nc(CC(C)(C)C)n(C[C@H]3CC[C@H](C)CC3)c12)C1CCC1 [Example 20.6, 6-{[(1R)-1-cyclobutylethyl]amino}-8-(2,2-dimethylpropyl)-7-[(trans-4-methylcyclohexyl)methyl]-7H-purine-2-carboxylic acid]",IC50,Table 20,13.9 nM
"C[C@H]1CC[C@H](Cn2c(N3CCC[C@H]3C(F)(F)F)nc3nc(-c4n[nH]c(=O)o4)nc(-c4cncc(Cl)c4)c32)CC1 [Example 16.106, 5-{6-(5-chloropyridin-3-yl)-7-[(trans-4-methylcyclohexyl)methyl]-8-[(2S)-2-(trifluoromethyl)pyrrolidin-1-yl]-7H-purin-2-yl} -1,3,4-oxadiazol-2(3H)-one]",IC50,[1],0.825 nM
"C[C@H](CO)Nc1nc2nc(-c3n[nH]c(=O)o3)nc(-c3cccc(Cl)c3)c2n1C[C@H]1CC[C@H](C)CC1 [Example 16.46, 5-{6-(3-chlorophenyl)-8-{[(1R)-2-hydroxy-1-methylethyl]amino}-7-[(trans-4-methylcyclohexyl)methyl]-7H-purin-2-yl}-1,3,4-oxadiazol-2(3H)-one]",IC50,[1],71 nM
"COC(C)(C)C1CCCN1c1nc2nc(-c3noc(=O)[nH]3)nc(N[C@H](C)C3CCC3)c2n1C[C@H]1CC[C@H](C)CC1 (stereo partly drawn) [Example 11.107, 3-(6-{[(1R)-1-cyclobutylethyl]amino}-8-[2-(1-methoxy-1-methylethyl)pyrrolidin-1-yl]-7-[(trans-4-methylcyclohexyl)methyl]-7H-purin-2-yl)-1,2,4-oxadiazol-5(2H)-one]",IC50,Table 11,0.507 nM
